pEC50, pIC50: −log10 of the molar value. “Also recorded” adds a separate entry of the source.
Assays:
Format in all cases: cell-based
[1] = test system: SU-DH-L1 cells; assay: Cell viability assay (CellTiter-Glo); details: for pIC50: SU-DHL-1, SU-DH-L1 cells, 24 hours
Experimental: Cell Viability Assay. SU-DH-L1 cells were seeded in 30 μl of 8000 cells per well in 384-well plates pre-printed with 10 mM of the stock compounds in varying volumes using a Tecan D300e Digital Dispenser (Tecan). After 24 hours, cell viability was determined using a CellTiter-Glo Luminescent Cell Viability Assay (Promega, G7571) following the manufacturer's instructions. Dose-response curve fitting and IC50 quantification were determined with four parameter nonlinear regression analysis using GraphPad Prism v8.4.2.

[2] = target: T1, ZFP91 (Homo sapiens, UniProt Q96JP5+Q96SW2); assay: Immunoblot of endogenous ZF protein ZFP91; details: for off-target degradation of endogenous ZFP91 (immunoblot): dose-dependent; for degradation potency for ZFP91 compared with pomalidomide (immunoblot): MM1.S cells
T1 construct: Immunoblots for endogenous ZF proteins ZFP91 and IKZF3 in MM1.S cells; endogenous in cells; host or cells: JURKAT, MM1.S, SU-DHL-1, H2228
Experimental: (§1) Western blot analysis. Lysates of cells treated with different compounds were collected with ice-cold M-PER™ Mammalian Protein Extraction Reagent (ThermoFisher Scientific, 78501) with freshly added phosphatase (Sigma-Aldrich, 04906837001) and protease (Sigma-Aldrich, 04693124001) inhibitors following the manufacturer's instructions. Next, 20-50 μg of proteins were fractionated with NuPAGE™ 4-12% Bis-Tris gels (ThermoFisher Scientific, NP0335BOX) then transferred onto nitrocellulose membranes using iBot™ Transfer Stacks (ThermoFisher Scientific, IB23002) following the manufacturer's instructions. Membranes were then stained with primary antibodies in 1:1000 dilutions and secondary fluorescent antibodies in 1:3000 dilutions using iBind™ Flex Fluorescent Detection Solution Kit (ThermoFisher Scientific, SLF2019) following the manufacturer's instructions.
(§2) Primary antibodies used in this study include ZFP91 (Bethyl Laboratories, A303-245A), IKZF3/Aiolos (D1C1E) (Cell Signaling, 15103S), CRBN (D8H3S) (Cell Signaling, 71810S), ALK(D5F3) XP (Cell Signaling, 3633S), phospho-ALK (Tyr1507) (D6F1V) (Cell Signaling, 14678S), β-actin (8H10D10) Mouse mAb (Cell Signaling, 3700S). Fluorescent secondary antibodies used in this study include IRDye 680RD goat anti-mouse IgG (LI-COR Biosciences, 926-68070) and IRDye 800CW goat anti-rabbit IgG (LI-COR Biosciences, 926-32211). Western blot detection was performed using an Odyssey CLx Imaging System (LI-COR Biosciences). Quantification of the relative area and density values of western blot bands were carried out using ImageJ v2.1.0 following the ImageJ User Guide for gel analysis (https://imagej.nih.gov/ij/docs/guide/). Quantified values were normalized by values for loading controls such as β-actin. For phospho NPM-ALK, quantified values were normalized by the values for total ALK.

[3] = target: T2, IKZF3 (Homo sapiens, UniProt Q96SW2+Q9UKT9); assay: Immunoblot of endogenous ZF protein IKZF3; details: for off-target degradation of endogenous IKZF3 (immunoblot): JURKAT cells, dose-dependent; for degradation potency for IKZF3 compared with pomalidomide (immunoblot): MM1.S cells
T2 construct: Immunoblots for endogenous ZF proteins ZFP91 and IKZF3 in MM1.S cells; endogenous in cells; host or cells: JURKAT, MM1.S
Experimental: as §1, §2

[4] = test system: ZF degrons fused to eGFP in U2OS cells; assay: Automated high-content imaging assay of ZF degron-tagged eGFP degradation (off-target profiling); details: U2OS ZF degron reporter cells, 24 hours, doses 4.3 nM to 20 μM
Description: Development and validation of an off-target profiling platform for PROTACs. To profile the ZF degradation propensity of pomalidomide and its analogs, an automated high-content imaging assay was first developed (FIG. 1A). For this platform, 23-amino acid ZF degrons of 12 ZF proteins were selected that are reportedly degraded by pomalidomide and two ZFs that are not.^2 These ZF degrons were inserted into a lentiviral degradation reporter vector (cilantro 2) to compare the fluorescence of ZF-tagged enhanced green fluorescent protein (eGFP) to untagged mCherry with high-content imaging (FIG. 1A). With this assay, wherein compounds are scanned against the 14 stable cell lines containing our tagged ZF-proteins, dose-dependent degradation of ZF degron-tagged eGFP by pomalidomide was reliably detected with a robust readout (Z-prime value of 0.8) (FIG. 5). […] Unlike mass spectrometry, this reporter-based method is not limited by cell-type-specific expression levels of analyte proteins nor by the accessibility to ZFs in the context of full-length proteins that are engaged in protein complexes. […]
The fluorescence intensity of eGFP was normalized to that of mCherry for every cell. […] The degradation score was then calculated by taking the sum of the GFP degradation fractions across all doses for each compound. […]

[5] = test system: MOLT4 and KELLY cells; assay: Global proteomic studies (TMT) of IMiDs in ZF protein-relevant cell lines; details: 1 μM
Experimental: Global proteomic studies. To validate the results from the imagining-based experiments, Applicant performed proteomics studies in two ZF protein-relevant cell lines (MOLT4 and KELLY).^26 Briefly, Applicant treated the ZF protein-relevant cells (MOLT4 and KELLY) with IMiDs or PROTACs at 1 μM concentrations, and the protein lysates were prepared from the cells were digested, and labeled using a TMT-based quantification kit. Labeled samples were subjected to LC/MS on an Orbitrap Eclipse Tribrid mass spectrometer. Applicant used the Proteome Discoverer software pipeline and identified the final hits by searching against the uniport database.

[6] = listed as Thalidomide analog with amino group on C5 position

T1 sequence (Q96JP5 2-570 limits assumed): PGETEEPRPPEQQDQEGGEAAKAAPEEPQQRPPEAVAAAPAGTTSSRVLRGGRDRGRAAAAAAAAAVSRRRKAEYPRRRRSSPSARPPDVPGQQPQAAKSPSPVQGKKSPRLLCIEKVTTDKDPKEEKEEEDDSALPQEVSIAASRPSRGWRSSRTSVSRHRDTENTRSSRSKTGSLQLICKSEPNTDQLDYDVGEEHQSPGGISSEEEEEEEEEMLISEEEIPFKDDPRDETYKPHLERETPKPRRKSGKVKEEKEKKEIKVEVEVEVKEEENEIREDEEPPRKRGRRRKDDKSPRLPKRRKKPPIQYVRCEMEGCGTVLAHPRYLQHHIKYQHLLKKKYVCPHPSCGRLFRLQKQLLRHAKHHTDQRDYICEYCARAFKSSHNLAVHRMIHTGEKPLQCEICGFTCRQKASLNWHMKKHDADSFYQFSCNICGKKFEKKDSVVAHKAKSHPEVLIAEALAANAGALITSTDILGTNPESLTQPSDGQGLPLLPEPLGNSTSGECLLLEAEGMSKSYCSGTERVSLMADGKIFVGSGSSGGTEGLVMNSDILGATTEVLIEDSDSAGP
T1 sequence (Q96SW2 whole entry): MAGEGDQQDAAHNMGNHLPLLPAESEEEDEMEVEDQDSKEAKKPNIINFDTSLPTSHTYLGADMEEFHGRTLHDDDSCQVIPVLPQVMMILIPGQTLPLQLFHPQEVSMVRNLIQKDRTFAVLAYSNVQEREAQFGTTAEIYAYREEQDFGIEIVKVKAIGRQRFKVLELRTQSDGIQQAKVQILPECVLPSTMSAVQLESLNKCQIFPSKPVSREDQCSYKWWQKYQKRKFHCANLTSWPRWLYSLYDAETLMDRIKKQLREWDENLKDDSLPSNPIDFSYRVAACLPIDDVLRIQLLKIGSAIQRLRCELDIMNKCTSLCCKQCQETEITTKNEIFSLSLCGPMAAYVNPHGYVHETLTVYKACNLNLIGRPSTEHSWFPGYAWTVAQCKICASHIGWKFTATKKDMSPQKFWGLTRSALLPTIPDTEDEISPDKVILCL
T1 sequence (Q16531 2-1140 partner limits assumed): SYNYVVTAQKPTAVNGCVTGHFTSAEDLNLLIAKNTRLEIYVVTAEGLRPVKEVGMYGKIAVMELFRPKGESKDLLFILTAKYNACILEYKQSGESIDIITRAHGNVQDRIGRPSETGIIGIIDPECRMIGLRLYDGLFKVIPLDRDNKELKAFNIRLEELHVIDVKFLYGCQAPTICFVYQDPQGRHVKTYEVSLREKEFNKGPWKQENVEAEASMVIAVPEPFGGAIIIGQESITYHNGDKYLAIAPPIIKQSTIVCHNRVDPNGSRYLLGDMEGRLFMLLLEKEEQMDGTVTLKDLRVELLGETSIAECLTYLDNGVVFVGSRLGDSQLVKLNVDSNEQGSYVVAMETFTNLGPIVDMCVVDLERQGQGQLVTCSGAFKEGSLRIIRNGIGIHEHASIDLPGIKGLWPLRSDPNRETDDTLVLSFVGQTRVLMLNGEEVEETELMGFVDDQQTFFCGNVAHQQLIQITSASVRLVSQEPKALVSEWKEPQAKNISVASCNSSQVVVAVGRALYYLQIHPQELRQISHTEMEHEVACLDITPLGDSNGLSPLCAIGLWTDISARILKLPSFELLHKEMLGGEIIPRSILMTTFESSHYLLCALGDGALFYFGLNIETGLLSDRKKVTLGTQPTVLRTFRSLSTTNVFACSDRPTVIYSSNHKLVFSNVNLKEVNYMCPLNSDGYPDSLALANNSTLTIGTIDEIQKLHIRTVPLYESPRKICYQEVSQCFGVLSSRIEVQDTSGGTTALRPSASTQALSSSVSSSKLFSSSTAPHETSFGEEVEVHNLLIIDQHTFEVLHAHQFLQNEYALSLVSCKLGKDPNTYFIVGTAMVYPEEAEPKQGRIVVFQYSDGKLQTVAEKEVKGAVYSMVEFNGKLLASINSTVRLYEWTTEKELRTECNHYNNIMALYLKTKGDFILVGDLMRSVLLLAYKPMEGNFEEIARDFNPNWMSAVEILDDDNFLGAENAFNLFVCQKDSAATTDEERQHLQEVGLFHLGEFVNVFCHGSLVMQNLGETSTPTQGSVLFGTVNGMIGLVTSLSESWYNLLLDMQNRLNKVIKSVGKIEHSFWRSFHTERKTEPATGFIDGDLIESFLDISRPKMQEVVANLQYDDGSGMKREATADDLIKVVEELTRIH
T2 sequence (Q9UKT9 whole entry): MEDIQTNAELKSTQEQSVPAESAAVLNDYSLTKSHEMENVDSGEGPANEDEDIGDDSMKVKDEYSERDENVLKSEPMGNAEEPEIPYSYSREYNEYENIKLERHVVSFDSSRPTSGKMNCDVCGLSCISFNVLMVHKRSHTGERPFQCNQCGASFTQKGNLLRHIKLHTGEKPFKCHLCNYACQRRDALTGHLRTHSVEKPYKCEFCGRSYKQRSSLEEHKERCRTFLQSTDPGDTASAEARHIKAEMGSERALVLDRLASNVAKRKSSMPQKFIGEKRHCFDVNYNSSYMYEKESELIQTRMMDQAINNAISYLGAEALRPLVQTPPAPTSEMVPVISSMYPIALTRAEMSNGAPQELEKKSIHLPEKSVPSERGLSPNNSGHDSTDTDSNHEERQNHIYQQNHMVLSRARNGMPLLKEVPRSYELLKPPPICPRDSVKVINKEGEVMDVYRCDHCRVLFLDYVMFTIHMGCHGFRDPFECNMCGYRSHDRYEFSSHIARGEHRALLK
T2 sequence (Q96SW2 whole entry): as the sequence (Q96SW2 whole entry) above
T2 sequence (Q16531 2-1140 partner limits assumed): as the sequence (Q16531 2-1140 partner limits assumed) above

| Structure (SMILES) | pIC50 ([1]; Homo sapiens, Example 1) | off-target degradation of endogenous ZFP91 (immunoblot) ([2]; JURKAT cells) | off-target degradation of endogenous IKZF3 (immunoblot) [3] | off-target degradation of ZF degron-tagged eGFP [4] | further results |
| --- | --- | --- | --- | --- | --- |
| Cc1cc(Nc2ncc(Cl)c(Nc3ccccc3S(=O)(=O)C(C)C)n2)c(OC(C)C)cc1C1CCNCC1 [ceritinib] | 7.16 |  |  |  |  |
| CC[C@H](C(=O)N1CCCC[C@H]1C(=O)O[C@H](CCc1ccc(OC)c(OC)c1)c1ccccc1OCC(=O)NCCCCCCOc1cccc2c1C(=O)N(C1CCC(=O)NC1=O)C2=O)c1cc(OC)c(OC)c(OC)c1 (stereo partly shown) [dTAG-13] |  | off-target degradation | off-target degradation |  |  |
| Cc1cc(Nc2ncc(Cl)c(Nc3ccccc3S(=O)(=O)C(C)C)n2)c(OC(C)C)cc1C1CCN(CC(=O)NCCNc2cccc3c2C(=O)N(C2CCC(=O)NC2=O)C3=O)CC1 (stereo not shown) [MS4078] | 6.71 | off-target degradation | off-target degradation | high level of off-target ZF degradation; also recorded: ZNF517, ZNF654, ZNF276, ZNF653, and PATZ1 | off-target degradation of endogenous ZFP91 (immunoblot) ([2]; SU-DHL-1 and H2228 cell lines): off-target degradation; pEC50 ([1]; Homo sapiens, SU-DHL-1 cells, Example 3 numbering): 6.71; fold lowering of potency relative to ceritinib ([1]; IC50 ratio, Example 1): 2.8 fold |
| Nc1ccc2c(c1)C(=O)N(C1CCC(=O)NC1=O)C2=O (stereo not shown) [5-aminothalidomide] |  |  |  |  | degradation potency for ZFP91 compared with pomalidomide (immunoblot) [2]: decrease in overall degradation potency; degradation potency for ZFP91 compared with pomalidomide (immunoblot) [2, 6]: decrease in the potency; degradation potency for IKZF3 compared with pomalidomide (immunoblot) [3]: decrease in overall degradation potency; degradation potency for IKZF3 compared with pomalidomide (immunoblot) [3, 6]: decrease in the potency |
| Nc1cccc2c1C(=O)N(C1CCC(=O)NC1=O)C2=O (stereo not shown) [Pomalidomide] |  |  |  | degraded all 12 ZF degrons | off-target profile in global proteomics [5]: exhibited the commonly reported off-targets |
